Assay results taken from patent publication US8318794B2, “Method of use of porphyrins in preparing a medicament for sonodynamic therapy and a method of sonodynamic therapy using porphyrins” (Science Group Pty. Ltd., priority 2008, dated 2012).

Legend:
S-180 sarcoma [1] = test: Animal Test A: SDT with dihydroporphin e4 in KM mouse S-180 sarcoma model; format: in vivo; conditions: for Average Tumor Weights: 12 days after treatment
Experimental: The sound-sensitive agent, dihydroporphin e4, is prepared according to Chinese Patent No. 99119878.6. The agent is dissolved in water for injection in darkness to give a final concentration of 4 mg/mL. The resultant solution is stored at 4° C. in darkness.
The animal tumor model used in this study was the KM mouse S-180 sarcoma, which is one of the tumor models appointed by the China Food and Drug Administration (CFDA) for new anticancer drug testing. Mouse S-180 sarcoma cell line was commercially available from the Cancer Hospital affiliated to Sun Yat-sen University. The inbred strain of KM mice (female, about 18-20 g body weight) was bred and tested in a laboratory consistent with national standards for new drug tests (the Animal Experimental Centre of Guangzhou Chinese Traditional Medical University). The mouse S-180 sarcoma cell line was injected into and raised in the abdominal cavity of the KM mouse and regenerated 3 times by passing malignant ascites from one mouse to another to confirm their growth is stable.
The ultrasound having a frequency of 1.0 MHz and an adjustable power density in the range of 0.1-2.2 W/cm^2 is applied. The apparatus can emit parallel wave, continuous wave or discontinuous wave.
The ascites with S-180 cell suspension was drawn out from the abdomen of the third passage mouse, and germ-free physiological saline solution was added. The final concentration of the cell suspension was 1×10^7 cells/mL. 0.1 mL of the cell suspension was injected subcutaneously in the right axilla of the mouse to grow a solid tumor.
Three days later, a small mass with the average diameter of about 0.4 cm was seen and palpated on every implanted mouse axilla. These tumor-bearing mice are divided randomly into the following groups with 5 mice in each group: • 1) a blank control group (C); • 2) a ultrasound group (U), which are simply treated with ultrasound (having a frequency of 1.0 MHz and a power density of 1.6 W/cm^2) without injection of the sound-sensitive agent; • 3) a sound-sensitive agent group (E), which are simply injected with the sound-sensitive agent without treatment of ultrasound; • 4) a 0.4 group (EU1), which are injected with the sound-sensitive agent and subsequently treated with ultrasound having a frequency of 1.0 MHz and a power density of 0.4 W/cm^2; • 5) a 0.8 group (EU2), which are treated according to EU1 except using ultrasound having a power density of 0.8 W/cm^2; and • 6) a 1.6 group (EU3), which are treated according to EU1 except using ultrasound having a power density of 1.6 W/cm^2.
To prepare the mice for the experiment, the fur on the tumor-bearing area of the mice was removed with depilatory cream. For the E, EU1, EU2 and EU3 groups, the sound-sensitive agent was injected into each mouse abdominal cavity in a dose of 40 mg/kg in a dark room. The mice are kept in darkness.
(§1) Six hours after the injection, each mouse of the EU1, EU2 and EU3 groups and the U group is partially immerged in water with only their head remaining above the water surface. An ultrasound probe was then placed into the water to irradiate the tumor area at the above parameters for 3 minutes. The mice of each group are fed in a conventional way.
After treatment with SDT, primary tumor size were estimated by measuring perpendicular minor dimension (W) and major dimension (L) using sliding calipers every one or two days. Approximate tumor volume was calculated by the formula: W^2L×½.
12 days later, the mice are sacrificed by breaking the cervical vertebrae. The tumor tissues are separated and weighed on an electronic balance to calculate an average weight. Various groups are compared in terms of their respective average tumor weight at the 12th day.
In comparing the tumor weights of various groups, statistic analysis is performed using the Student's t test.

[2] = system: right breast carcinoma, tumor metastasis in liver; test: Clinical case: SDT with lysine form of tin chlorophyllin; format: in vivo, human; conditions: patient
Experimental: A patient with right breast carcinoma. […] 9, 2007 (see FIG. 5). The lysine form of tin chlorophyllin as indicated in the above animal test B was dissolved in 0.1 mol/L phosphate buffer (pH 7.4) and given to the patient through lingual absorption every day for 2 days. Total dose of the lysine form of tin chlorophyllin was 60 mg. After 24 h, the red light light-emitting diode (LED) was irradiated to the body surface followed by local ultrasound irradiating of the tumour area at the intensities of 2.0 W/cm^2 for 20 minutes in a water bathtub every day for 3 days. One week later, the treatment was repeated. After 3 cycles of SDT treatment with the lysine form of tin chlorophyllin, CT-PET scan on Jan.

S-180 sarcoma [3] = test: Animal Test B: SDT with lysine form of tin chlorophyllin in KM mouse S-180 sarcoma model; format: in vivo
Experimental: The sound-sensitive agent was the amino acid form of tin chlorophyllin, wherein M is Sn^4+, R1 is a residue of lysine, and R2 is a residue of lysine; the agent was obtained according to the previous process. The agent was dissolved in 0.1 mol/L phosphate buffer (pH 7.2-7.4) in darkness to give a final concentration of 2 mg/mL. The resultant solution was stored at 4° C. in a dark and quiet place.
The same as used in the above Animal Test A.
The same as established in the above Animal Test A.
After four days, touchable tumors with the average diameter of about 0.6 cm are developed subcutaneously at the right axillae of the mice. These tumor-bearing mice are divided randomly into the following groups: • 1) a blank control group (C); • 2) a ultrasound group (U), which are simply treated with ultrasound (having a frequency of 1.0 MHz and a power density of 1.2 W/cm^2) without injection of the sound-sensitive agent; • 3) a sound-sensitive agent group (S), which are simply injected with the sound-sensitive agent without treatment of ultrasound; • 4) a 0.3 group (SU1), which are injected with the sound-sensitive agent and subsequently treated with ultrasound having a frequency of 1.0 MHz and a power density of 0.3 W/cm^2; • 5) a 0.6 group (SU2), which are treated according to SU1 except using ultrasound having a power density of 0.6 W/cm^2; and • 6) a 1.2 group (SU3), which are treated according to SU1 except using ultrasound having a power density of 1.2 W/cm^2.
A depilatory cream is applied to remove fur on the areas to be irradiated. For the S, SU1, SU2 and SU3 groups, the sound-sensitive agent is injected intraperitoneally to each mouse at a dose of 20 mg/kg in a dark room. The mice are then fed in darkness.
as §1, with “6 h” for “Six hours”, “after” for “after the”, “SU1, SU2” for “EU1, EU2”, “SU3” for “EU3”, “ultrasond” for “ultrasound”, “180 seconds.” for “3 minutes.”
The same as in the above Animal Test A.
15 days later, the mice are sacrificed by breaking the cervical vertebrae. The tumor tissues are separated and weighed on an electronic balance to calculate an average weight. Various groups are compared in terms of their respective average tumor weights at the 15th day.

Substance	tumor growth (FIG. 2) (S-180 sarcoma [1]; SDT, ultrasound power density 0.4 W/cm^2-1.6 W/cm^2)	Average Tumor Weights (S-180 sarcoma [1]; group E: 40 mg/kg into abdominal cavity, no ultrasound)	average tumor volume profile (FIG. 1) (S-180 sarcoma [1]; group E: 40 mg/kg, no ultrasound)	Average Tumor Weights (S-180 sarcoma [1]; group EU1: 40 mg/kg into abdominal cavity + ultrasound 1.0 MHz, 0.4 W/cm^2, 3 min, 6 h after injection)	Average Tumor Weights (S-180 sarcoma [1]; group EU2: 40 mg/kg into abdominal cavity + ultrasound 1.0 MHz, 0.8 W/cm^2, 3 min, 6 h after injection)	average tumor volume profile (FIG. 1) (S-180 sarcoma [1]; group EU3: 40 mg/kg + ultrasound 1.6 W/cm^2)	Average Tumor Weights (S-180 sarcoma [1]; group EU3: 40 mg/kg into abdominal cavity + ultrasound 1.0 MHz, 1.6 W/cm^2, 3 min, 6 h after injection)	Blood Routine and chemistry tests ([2]; after 3 cycles of SDT)	symptom ([2]; after 3 cycles of SDT)	CT-PET scan of liver metastasis after 3 cycles of SDT ([2]; total dose 60 mg by lingual absorption, red LED light + ultrasound 2.0 W/cm^2, 20 min, daily for 3 days per cycle)	effect on the tumor (FIG. 4) (S-180 sarcoma [3]; SDT, ultrasound power density 0.3 W/cm^2-1.2 W/cm^2)	Average Tumor Weight (S-180 sarcoma [3]; group S: 20 mg/kg intraperitoneally, no ultrasound, 15 days after treatment)	average tumor volume profile (FIG. 3) (S-180 sarcoma [3]; group S: 20 mg/kg, no ultrasound)	Average Tumor Weight (S-180 sarcoma [3]; group SU1: 20 mg/kg intraperitoneally + ultrasound 1.0 MHz, 0.3 W/cm^2, 180 s, 6 h after injection, 15 days)	Average Tumor Weight (S-180 sarcoma [3]; group SU2: 20 mg/kg intraperitoneally + ultrasound 1.0 MHz, 0.6 W/cm^2, 180 s, 6 h after injection, 15 days)	average tumor volume profile (FIG. 3) (S-180 sarcoma [3]; group SU3: 20 mg/kg + ultrasound 1.2 W/cm^2)	Average Tumor Weight (S-180 sarcoma [3]; group SU3: 20 mg/kg intraperitoneally + ultrasound 1.0 MHz, 1.2 W/cm^2, 180 s, 6 h after injection, 15 days)
dihydroporphin e4	tumor growth is significantly inhibited	1.8800 ± 0.3114 g	slower increase compared with the blank control group	0.7600 ± 0.0894 g	0.5800 ± 0.0837 g	even slower tumor development	0.5200 ± 0.0837 g	–	–	–	–	–	–	–	–	–	–
lysine form of tin chlorophyllin	–	–	–	–	–	–	–	normal result	much improved	the tumor shrank and the tumor metabolic activity was inhibited	killing effect on the tumor	0.269 ± 0.331 g	slower increase compared to the blank control group	0.0435 ± 0.031 g	0.022 ± 0.008 g	hardly increased during the first six days after the SDT treatment, and began to decrease from the 7th day, and noticeably lower at the 15th day than before the test	0.011 ± 0.004 g
